Measured values as given in US7855166B2, “Sulfonylamino(thio)carbonyl compounds” (Bayer Cropscience GmbH, priority 2005, dated 2010).

Key:
[1] = test system: weed plants such as Sinapis alba, Echinochloa crus-galli, Lolium multiflorum, Chrysanthemum segetum, Setaria viridis, Abutilon theophrasti, Amaranthus …; test: Post-emergence effect on weeds (greenhouse pot test, visual scoring); type: in vivo; conditions: applied post-emergence (three-leaf stage) at a rate of 0.3 kg or less of active substance per hectare; scored after about 3 to 4 weeks in comparison to untreated controls
[2] = test system: weed plants such as Sinapis alba, Chrysanthemum segetum, Avena sativa, Stellaria media, Echinochloa crus-galli, Lolium multiflorum, Setaria viridis, Abutilon …; test: Pre-emergence effect on weeds (greenhouse pot test, visual scoring); type: in vivo; conditions: applied pre-emergence at a rate of 0.3 kg or less of active substance per hectare; scored after 3 to 4 weeks in comparison to untreated controls

Row | Structure (SMILES) | herbicidal action against weed plants (effect scored visually) [1] | herbicidal action against weed plants (visual scoring of plant damage or emergence damage) [2]
1 | Cc1cc(I)c(S(=O)(=O)NC(=O)n2nc(OC(C)C)n(C)c2=O)cc1C [Compound 1.865] | very good herbicidal action | very good herbidical action
2 | COc1nn(C(=O)NS(=O)(=O)c2cc(C)c(C)cc2I)c(=O)n1C1CC1 [Compound 1.866] | very good herbicidal action | very good herbidical action
3 | CCOc1nn(C(=O)NS(=O)(=O)c2cc(C)c(C)cc2I)c(=O)n1C1CC1 [Compound 1.867] | very good herbicidal action | very good herbidical action
4 | CCCOc1nn(C(=O)NS(=O)(=O)c2cc(C)c(C)cc2I)c(=O)n1C1CC1 [Compound 1.868] | very good herbicidal action | very good herbidical action
5 | COc1nn(C(=O)NS(=O)(=O)c2ccc(Cl)cc2I)c(=O)n1C [Compound 1.869] | very good herbicidal action | very good herbidical action
6 | CCOc1nn(C(=O)NS(=O)(=O)c2ccc(Cl)cc2I)c(=O)n1C [Compound 1.870] | very good herbicidal action | very good herbidical action
7 | CCCOc1nn(C(=O)NS(=O)(=O)c2ccc(Cl)cc2I)c(=O)n1C [Compound 1.871] | very good herbicidal action | very good herbidical action
8 | CC(C)Oc1nn(C(=O)NS(=O)(=O)c2ccc(Cl)cc2I)c(=O)n1C [Compound 1.872] | very good herbicidal action | very good herbidical action
9 | COc1nn(C(=O)NS(=O)(=O)c2ccc(Cl)cc2I)c(=O)n1C1CC1 [Compound 1.873] | very good herbicidal action | very good herbidical action
10 | CCOc1nn(C(=O)NS(=O)(=O)c2ccc(Cl)cc2I)c(=O)n1C1CC1 [Compound 1.874] | very good herbicidal action | very good herbidical action
11 | CCCOc1nn(C(=O)NS(=O)(=O)c2ccc(Cl)cc2I)c(=O)n1C1CC1 [Compound 1.875] | very good herbicidal action | very good herbidical action
12 | CCCc1ccc(S(=O)(=O)NC(=O)n2nc(OC)n(C)c2=O)c(I)c1 [Compound 1.876] | very good herbicidal action | very good herbidical action
13 | CCCc1ccc(S(=O)(=O)NC(=O)n2nc(OCC)n(C)c2=O)c(I)c1 [Compound 1.877] | very good herbicidal action | very good herbidical action
14 | CCCOc1nn(C(=O)NS(=O)(=O)c2ccc(CCC)cc2I)c(=O)n1C [Compound 1.878] | very good herbicidal action | very good herbidical action
15 | CCCc1ccc(S(=O)(=O)NC(=O)n2nc(OC(C)C)n(C)c2=O)c(I)c1 [Compound 1.879] | very good herbicidal action | very good herbidical action
16 | CCCc1ccc(S(=O)(=O)NC(=O)n2nc(OC)n(C3CC3)c2=O)c(I)c1 [Compound 1.880] | very good herbicidal action | very good herbidical action

Row | Structure (SMILES) | herbicidal action against weed plants (effect scored visually) [1] | herbicidal action against weed plants (visual scoring of plant damage or emergence damage) [2]
17 | CCCc1ccc(S(=O)(=O)NC(=O)n2nc(OCC)n(C3CC3)c2=O)c(I)c1 [Compound 1.881] | very good herbicidal action | very good herbidical action
18 | CCCOc1nn(C(=O)NS(=O)(=O)c2ccc(CCC)cc2I)c(=O)n1C1CC1 [Compound 1.882] | very good herbicidal action | very good herbidical action
19 | CCCCc1ccc(S(=O)(=O)NC(=O)n2nc(OCC)n(C)c2=O)c(I)c1 [Compound 1.883] | very good herbicidal action | very good herbidical action
20 | CCCCc1ccc(S(=O)(=O)NC(=O)n2nc(OCCC)n(C)c2=O)c(I)c1 [Compound 1.884] | very good herbicidal action | very good herbidical action
21 | CCCCc1ccc(S(=O)(=O)NC(=O)n2nc(OC)n(C)c2=O)c(I)c1 [Compound 1.885] | very good herbicidal action | very good herbidical action
22 | CCCCc1ccc(S(=O)(=O)NC(=O)n2nc(OC)n(C3CC3)c2=O)c(I)c1 [Compound 1.886] | very good herbicidal action | very good herbidical action
23 | CCCCc1ccc(S(=O)(=O)NC(=O)n2nc(OCC)n(C3CC3)c2=O)c(I)c1 [Compound 1.887] | very good herbicidal action | very good herbidical action
24 | CCCCc1ccc(S(=O)(=O)NC(=O)n2nc(OCCC)n(C3CC3)c2=O)c(I)c1 [Compound 1.888] | very good herbicidal action | very good herbidical action
25 | CCCCc1ccc(S(=O)(=O)NC(=O)n2nc(OC(C)C)n(C)c2=O)c(I)c1 [Compound 1.889] | very good herbicidal action | very good herbidical action
26 | CCOc1nn(C(=O)NS(=O)(=O)c2ccc(C(F)(F)F)cc2I)c(=O)n1C [Compound 1.890] | very good herbicidal action | very good herbidical action
27 | CCOc1nn(C(=O)NS(=O)(=O)c2ccc(C(F)(F)F)cc2I)c(=O)n1C1CC1 [Compound 1.891] | very good herbicidal action | very good herbidical action
28 | O=C(NS(=O)(=O)c1ccc(C(F)(F)F)cc1I)n1nc(C2CC2)n(C2CC2)c1=O [Compound 1.892] | very good herbicidal action | very good herbidical action
29 | COc1nn(C(=O)NS(=O)(=O)c2ccc(C(F)(F)F)cc2I)c(=O)n1C [Compound 1.893] | very good herbicidal action | very good herbidical action
30 | CCCOc1nn(C(=O)NS(=O)(=O)c2ccc(C(F)(F)F)cc2I)c(=O)n1C [Compound 1.894] | very good herbicidal action | very good herbidical action
31 | CC(C)Oc1nn(C(=O)NS(=O)(=O)c2ccc(C(F)(F)F)cc2I)c(=O)n1C [Compound 1.895] | very good herbicidal action | very good herbidical action
32 | COc1nn(C(=O)NS(=O)(=O)c2ccc(C(F)(F)F)cc2I)c(=O)n1C1CC1 [Compound 1.896] | very good herbicidal action | very good herbidical action
